This passage reports IC50, inhibition and Ki results from patent US7045528B2, “Benzofused heterozryl amide derivatives of thienopyridines useful as therapeutic agents, pharmaceutical compositions including the same, and methods for their use” (Agouron Pharmaceuticals, Inc., priority 2002, dated 2006).

Read-outs that look alike come from different tables or passages of the source.

One experiment has as its target T1, PDGFRβ (Homo sapiens, UniProt P09619).
T1 construct: expressed in transfected cells; host or cells: porcine aorta endothelial (PAE)-PDGFRβ cells
Kind of experiment: PAE-PDGFRβ phosphorylation in PAE-PDGFRB cells assay. In kind it is cell-based. The procedure: PAE-PDGFRβ Phosphorylation in PAE-PDGFRB Cells Assay
This assay determines the ability of a test compound to inhibit the autophosphorylation of PDGFRβ in porcine aorta endothelial (PAE)-PDGFRβ cells. PAE cells that overexpress human PDGFRβ were used in this assay. The cells were cultured in Ham's F12 media supplemented with 10% fetal bovine serum (FBS) and 400 ug/ml G418. Twenty thousands cells were seeded in each well of a 96-well plate in 50 μL of growth media and allowed to attach for 6 hours at 37° C. Cells were then exposed to the starvation media (Ham's F12 media supplemented with 0.1% FBS) for 16 hours. After the starvation period was over, 10 μL of test agent in 5% DMSO in starvation media were added to the test wells and 10 μL of the vehicle (5% DMSO in starvation media) were added into the control wells. The final DMSO concentration in each well was 0.5%. Plates were incubated at 37° C. for 1 hour and the cells were then stimulated with 1 μg/mL PDGF-BB (R & D System) in the presence of 2 mM Na3VO4 for 8 minutes. The cells were washed once with 1 mm Na3VO4 in HBSS and lysed by adding 50 μL per well of lysis buffer. One hundred μL of dilution buffer were then added to each well and the diluted cell lysate was transferred to a 96-well goat ant-rabbit coated plate (Pierce), which was pre-coated with Rabbit anti Human PDGFRβ antibody (Santa Cruz). The plates were incubated at room temperature for 2 hours and washed seven times with 1% Tween 20 in PBS. HRP-PY20 (Santa Cruz) was diluted and added to the plate for a 30-minute incubation. Plates were then washed again and TMB peroxidase substrate (Kirkegaard & Perry) was added for a 10-minute incubation. One hundred μL of 0.09 N H2SO4 was added into each well of the 96-well plate to stop the reaction. Phosphorylation status was assessed by spectrophotometer reading at 450 nm. IC50 values were calculated by curve fitting using a four-parameter analysis.

The target in experiment [1] is T2, unphosphorylated VEGF-R2Δ50 (FLVK) (Homo sapiens, UniProt P35968, DEL940-989/E990V).
T2 construct: VEGF-R2Δ50 contains residues 806–939 and 990–1171; made in house; host or cells: baculovirus/insect cell system
T2 sequence (P35968 with tags, fused parts or gaps DEL940-989/E990V limits assumed): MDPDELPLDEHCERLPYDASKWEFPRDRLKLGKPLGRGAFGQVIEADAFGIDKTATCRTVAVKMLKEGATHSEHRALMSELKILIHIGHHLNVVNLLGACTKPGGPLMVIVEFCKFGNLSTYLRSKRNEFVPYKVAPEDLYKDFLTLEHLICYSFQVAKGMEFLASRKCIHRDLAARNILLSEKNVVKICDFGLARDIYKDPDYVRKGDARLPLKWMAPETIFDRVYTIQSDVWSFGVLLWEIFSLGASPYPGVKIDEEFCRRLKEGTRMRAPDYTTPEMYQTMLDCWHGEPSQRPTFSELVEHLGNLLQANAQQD
Kind of experiment: VEGF-R2 coupled spectrophotometric assay, unphosphorylated VEGF-R2Δ50 (FLVK). It is filed as biochemical. The settings on record: for inhibition at 0.1 µM: percent inhibition at 100 nM, library amides from Example 101 (R101), crude mixtures in DMSO, read-out: FLVK (% @ 100 nM); for inhibition at 0.05 µM: 50 nM compound, read-out: FLVK (% inh @ 50 nM); for inhibition at 0.05 µM / Ki: unphosphorylated VEGF-R2Δ50. An excerpt: VEGF-R2 Construct for Assay:
This construct determines the ability of a test compound to inhibit tyrosine kinase activity. A construct (VEGF-R2Δ50) of the cytosolic domain of human vascular endothelial growth factor receptor 2 (VEGF-R2) lacking the 50 central residues of the 68 residues of the kinase insert domain was expressed in a baculovirus/insect cell system. Of the 1356 residues of full-length VEGF-R2, VEGF-R2Δ50 contains residues 806–939 and 990–1171, and also one point mutation (E990V) within the kinase insert domain relative to wild-type VEGF-R2. Autophosphorylation of the purified construct was performed by incubation of the enzyme at a concentration of 4 μM in the presence of 3 mM ATP and 40 mM MgCl2 in 100 mM HEPES, pH 7.5, containing 5% glycerol and 5 mM DTT, at 4° C. for 2 h. […] See Parast et al., Biochemistry, 37, 16788–16801 (1998).
Coupled Spectrophotometric (FLVK-P) Assay
The production of ADP from ATP that accompanies phosphoryl transfer was coupled to oxidation of NADH using phosphoenolpyruvate (PEP) and a system having pyruvate kinase (PK) and lactic dehydrogenase (LDH). The oxidation of NADH was monitored by following the decrease of absorbance at 340 nm (e340=6.22 cm^−1 mM^−1) using a Beckman DU 650 spectrophotometer. Assay conditions for phosphorylated VEGF-R2Δ50 (indicated as FLVK-P in the tables below) were the following: 1 mM PEP; 250 μM NADH; 50 units of LDH/mL; 20 units of PK/mL; 5 mM DTT; 5.1 mM poly(E4Y1); 1 mM ATP; and 25 mM MgCl2 in 200 mM HEPES, pH 7.5. Assay conditions for unphosphorylated VEGF-R2Δ50 (indicated as FLVK in the tables) were the following: 1 mM PEP; 250 μM NADH; 50 units of LDH/mL; 20 units of PK/mL; 5 mM DTT; 20 mM poly(E4Y1); 3 mM ATP; and 60 mM MgCl2 and 2 mM MnCl2 in 200 mM HEPES, pH 7.5. Assays were initiated with 5 to 40 nM of enzyme. Ki values were determined by measuring enzyme activity in the presence of varying concentrations of test compounds. […] The binding inhibitions were fitted to equation as described by Morrison. The data were analyzed using Enzyme Kinetic and Kaleidagraph software.

[2] abbreviates: library amides from Example 101 (R101), crude mixtures in DMSO, read-out: PAE PDGFR autophos IC50.
[3] abbreviates: PAE cells overexpressing human PDGFRβ, PDGF-BB stimulated, read-out: PAE PDGFR autophos IC50 (nM) AVG.

T1 sequence (P09619 33-1106): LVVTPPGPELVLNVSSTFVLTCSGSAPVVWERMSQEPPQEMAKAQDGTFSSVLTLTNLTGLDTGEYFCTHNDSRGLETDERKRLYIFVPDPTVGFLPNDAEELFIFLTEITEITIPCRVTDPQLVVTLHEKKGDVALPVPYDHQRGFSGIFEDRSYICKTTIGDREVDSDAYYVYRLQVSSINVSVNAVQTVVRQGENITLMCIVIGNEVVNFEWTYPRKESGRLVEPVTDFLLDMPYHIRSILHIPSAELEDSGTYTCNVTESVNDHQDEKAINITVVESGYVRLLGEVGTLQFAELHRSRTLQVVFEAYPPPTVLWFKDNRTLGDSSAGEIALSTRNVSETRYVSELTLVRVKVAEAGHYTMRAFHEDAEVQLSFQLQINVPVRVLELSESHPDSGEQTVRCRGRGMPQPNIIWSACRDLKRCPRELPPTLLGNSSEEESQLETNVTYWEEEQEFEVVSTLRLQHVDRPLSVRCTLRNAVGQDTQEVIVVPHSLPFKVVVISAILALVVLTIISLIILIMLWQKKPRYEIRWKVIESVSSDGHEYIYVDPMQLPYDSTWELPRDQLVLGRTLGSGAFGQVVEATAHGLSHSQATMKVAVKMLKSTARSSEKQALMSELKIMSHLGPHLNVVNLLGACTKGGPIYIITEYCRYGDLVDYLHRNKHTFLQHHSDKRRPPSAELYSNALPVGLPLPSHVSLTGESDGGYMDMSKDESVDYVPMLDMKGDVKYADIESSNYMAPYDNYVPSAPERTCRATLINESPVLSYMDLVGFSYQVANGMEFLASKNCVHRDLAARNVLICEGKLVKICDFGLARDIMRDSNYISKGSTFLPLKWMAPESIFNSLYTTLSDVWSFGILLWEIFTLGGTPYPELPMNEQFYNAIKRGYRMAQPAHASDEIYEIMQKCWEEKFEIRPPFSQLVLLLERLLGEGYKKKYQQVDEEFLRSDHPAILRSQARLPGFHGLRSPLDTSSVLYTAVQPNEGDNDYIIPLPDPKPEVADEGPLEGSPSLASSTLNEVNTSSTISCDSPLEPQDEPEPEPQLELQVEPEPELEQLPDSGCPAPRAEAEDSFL

With `COC(=O)[C@H](Cc1c[nH]cn1)NC(=O)c1c(C)oc2cc(Oc3ccnc4ccsc34)ccc12`, on PDGFRβ (setting [2]), the concentration for half-maximal inhibition (IC50) (usually the concentration needed to halve the response being measured) came out at 49 nM. Moreover, in experiment [1], the inhibition at 0.1 µM was determined as 52%.

Consider `COC(=O)C1CN1C(=O)c1c(C)oc2cc(Oc3ccnc4ccsc34)ccc12` (stereo not shown), for which, on PDGFRβ (setting [2]), the IC50 is over 100 nM. The inhibition at 0.1 µM in experiment [1] was found to be 51%.

Turning to `Cc1oc2cc(Oc3ccnc4ccsc34)ccc2c1C(=O)Nc1cc[nH]n1`, the IC50 on PDGFRβ (setting [2]) was over 100 nM. Also, in experiment [1], the inhibition at 0.1 µM amounted to 91%.

As for `CNC(=O)c1c(C)n(C)c2cc(Oc3ccnc4cc(C(=O)N5CC[C@@H](N(C)C)C5)sc34)ccc12` [Example 27, 6-[(2-{[(3R)-3-(Dimethylamino)pyrrolidin-1-yl]carbonyl}thieno[3,2-b]pyridin-7-yl)oxy]-N,1,2-trimethyl-1H-indole-3-carboxamide], the IC50 on PDGFRβ (setting [3]) turned out to be 205 nM. In addition, in experiment [1], the inhibition at 0.05 µM stood at 13% and the affinity corresponds to a Ki of 96 nM.

Turning to `CNC(=O)c1c(C)n(C)c2cc(Oc3ccnc4cc(C(=O)N(C)CCCN(C)C)sc34)ccc12` [Example 32, N-[3-(Dimethylamino)propyl]-7-({1,2-dimethyl-3-[(methylamino)carbonyl]-1H-indol-6-yl}oxy)-N-methylthieno[3,2-b]pyridine-2-carboxamide], the IC50 on PDGFRβ (setting [3]) turned out to be 29.2 nM. In addition, in experiment [1], the inhibition at 0.05 µM is 22% and the Ki – broadly, a dissociation constant, usually derived from enzyme kinetics or from competition with a known ligand – was found to be 39.4 nM.

Consider `CNC(=O)c1c(C)n(C)c2cc(Oc3ccnc4cc(C(=O)N5CC[C@@H](N(C)C(=O)OC(C)(C)C)C5)sc34)ccc12` [Example 34, tert-Butyl-(3R)-1-{[7-({1,2-dimethyl-3-[(methylamino)carbonyl]-1H-indol-6-yl}oxy)thieno[3,2-b]pyridin-2-yl]carbonyl}pyrrolidin-3-yl(methyl)carbamate], for which, on PDGFRβ (setting [3]), the IC50 was 31.3 nM. In addition, in experiment [1], the inhibition at 0.05 µM is 45% and the inhibition constant (Ki) turned out to be 11.4 nM.

In turn, `CNC(=O)c1c(C)n(C)c2cc(Oc3ccnc4cc(C(=O)N5CC[C@@H](NC)C5)sc34)ccc12` [Example 35, 1,2-Dimethyl-6-[2-(3-methylamino-pyrrolidine-1-carbonyl)-thieno[3,2-b]pyridin-7-yloxy]-1H-indole-3-carboxylic acid methylamide] returned an IC50 against PDGFRβ of 70 nM. For the same molecule, in experiment [1], the inhibition at 0.05 µM is 23% and the inhibitory constant (Ki) is 35.2 nM.

For the molecule `CCc1c(C(=O)NC)c2ccc(Oc3ccnc4cc(-c5nccn5C)sc34)cc2n1C` [Example 74, 2-Ethyl-1-methyl-6-[2-(1-methyl-1H-imidazol-2-yl)-thieno[3,2-b]pyridin-7-yloxy]-1H-indole-3-carboxylic acid methylamide], the IC50 on PDGFRβ (setting [3]) was found to be 313 nM. Moreover, in experiment [1], the inhibition at 0.05 µM turned out to be 43% and the Ki was 12.7 nM.

Consider `CO[C@@H]1CCN(C(=O)c2cc3nccc(Oc4ccc5c(C(=O)NCCO)c(C)oc5c4)c3s2)C1` [Example 93, 6-[2-(3-Methoxy-pyrrolidine-1-carbonyl)-thieno[3,2-b]pyridin-7-yloxy]-2-methyl-benzofuran-3-carboxylic acid 2-hydroxyethyl amide], for which the concentration for half-maximal inhibition (IC50) on PDGFRβ (setting [3]) amounted to 44 nM. In experiment [1], the inhibition at 0.05 µM was 84% and the inhibitory constant (Ki) was determined as 2.72 nM.

`CNC(=O)c1c(C)oc2cc(Oc3ccnc4ccsc34)ccc12` [Example 99, 6-[Thieno(3,2-b)pyridin-7-yloxy]-2-methyl-benzofuran-3-carboxylic acid methyl amide]: at PDGFRβ (setting [3]), the 50% inhibitory concentration (IC50) was 563 nM. In experiment [1], the inhibition at 0.05 µM came to 66% and the Ki turned out to be 4.68 nM.

On to `Cc1oc2cc(Oc3ccnc4ccsc34)ccc2c1C(=O)NCCN1CCOCC1` [Example 103, 2-Methyl-6-[thieno[3,2-b]pyridin-7-yloxy]benzofuran-3-carboxylic acid (2-morpholin-4-yl-ethyl)-amide], for which, on PDGFRβ (setting [3]), the half-maximal inhibitory concentration (IC50) is 203 nM. In experiment [1], the inhibition at 0.05 µM worked out at 52% and the affinity corresponds to a Ki of 7 nM.

On to `CCCCNC(=O)c1c(C)oc2cc(Oc3ccnc4ccsc34)ccc12` [Example 105, 2-Methyl-6-[Thieno(3,2-b)pyridin-7-yloxy]benzofuran-3-carboxylic acid butyl amide], for which the 50% inhibitory concentration (IC50) on PDGFRβ (setting [3]) worked out at 127 nM. Further, in experiment [1], the inhibition at 0.05 µM turned out to be 61% and the affinity corresponds to a Ki of 8.37 nM.

Regarding `CNC(=O)c1c(C)sc2cc(Oc3ccnc4cc(COCCN5CCCC5)sc34)ccc12` [Example 114, 2-Methyl-6(2-[2-(pyrrolidin-1-yl)ethoxymethyl]thieno[3,2-b]pyridin-7-yloxy)benzo[b]thiophene-3-carboxylic acid methylamide], in experiment [1], the inhibition at 0.05 µM is 16% and affinity was put at a Ki of 119 nM.

Consider `CNC(=O)c1c(C)sc2cc(Oc3ccnc4cc(CN5CCCC5)sc34)ccc12` [Example 115, 2-Methyl-6-(2-[pyrrolidin-1-ylmethyl]thieno[3,2-b]pyridin-7-yloxy)benzo[b]thiophene-3-carboxylic acid methylamide], for which the inhibition at 0.05 µM in experiment [1] was 4%.

Regarding `CNC(=O)c1c(C)sc2cc(Oc3ccnc4cc(CN(C)C)sc34)ccc12` [Example 116, 6-(2-[Dimethylaminomethyl]thieno[3,2-b]pyridin-7-yloxy)-2-methylbenzo[b]thiophene-3-carboxylic acid methylamide], in experiment [1], the inhibition at 0.05 µM turned out to be 4%.

Regarding `COC[C@@H]1CCCN1C(=O)c1cc2nccc(Oc3ccc4c(C(=O)NCCCO)c(C)sc4c3)c2s1` [Example 122, 6-[(2-{[(2S)-2-(Methoxymethyl)pyrrolidin-1-yl]carbonyl}thieno[3,2-b]pyridin-7-yl)oxy]-2-methylbenzo[b]thiophene-3-carboxylic acid 3-hydroxypropylamide], the concentration for half-maximal inhibition (IC50) on PDGFRβ (setting [3]) stood at 351 nM. Moreover, in experiment [1], the inhibition at 0.05 µM amounted to 58% and the affinity, expressed as Ki, was 5.14 nM.

With `Cc1sc2cc(Oc3ccnc4ccsc34)ccc2c1C(=O)NCCN1CCOCC1` [Example 133, 2-Methyl 6-(thieno[3,2-b]pyridin-7-yloxy)benzo[b]thiophene-3-carboxylic acid (2-morpholin-4-yl)ethylamide], the IC50 at PDGFRβ (setting [3]) amounted to 468 nM. For the same molecule, in experiment [1], the inhibition at 0.05 µM worked out at 40% and affinity was put at a Ki of 5.9 nM.

Take `Cc1cc2nccc(Oc3ccc4c(C(=O)NCCN5CCOCC5)c(C)sc4c3)c2s1` [Example 139, 2-Methyl-6-(2-methylthieno[3,2-b]pyridin-7-yloxy)benzo[b]thiophene-3-carboxylic acid (2-morpholin-4-yl-ethyl)-amide]: the inhibition at 0.05 µM in experiment [1] came to 40%.

`Cc1cc2nccc(Oc3ccc4c(C(=O)NCCCN5CCOCC5)c(C)sc4c3)c2s1` [Example 140, 2-Methyl-6-(2-methylthieno[3,2-b]pyridin-7-yloxy)benzo[b]thiophene-3-carboxylic acid (3-morpholin-4ylpropyl)-amide]: in experiment [1], the inhibition at 0.05 µM was 90%.

On to `Cc1oc2cc(Oc3ccnc4ccsc34)ccc2c1C(=O)NCCN1CCOCC1` [drawing 310], for which the IC50 on PDGFRβ (setting [2]) is 50 nM.
